From patent US20210395208A1, “AMORPHOUS COMPOUNDS OF FORMULA (I) AND AMORPHOUS COMPOUNDS OF FORMULA (I) SALTS” (H. Lundeck A/S, priority 2018, published 2021)
Structures can show the parent of a compound that is named as a salt.

Experiments:
Type in all cases: physicochemical
[1] = Actual glass transition temperature (Tg) of the amorphous form by DSC; settings: amorphous form made by melt quenching in the DSC pan, heated 10° C./min
Method: (§1) The terms “actual glass transition temperature” and “calculated glass transition temperature” as used herein refers to the measured (actual) and theoretical (calculated) glass transition temperature associated with a specific compound of Formula (I) or compound of Formula (I) salt. The actual glass transition temperature is determined from the DSC thermogram for the amorphous material, which is exemplified in example 1 and depicted in FIG. 2. The calculated glass transition temperature is calculated as ⅔ of the melting temperature (in Kelvin) of the crystalline form. FIG. 1 illustrate DSC thermograms of crystalline forms of compound (Ia), from which the melting temperature can be determined. The calculation procedure for estimation of the glass transition temperature is described in example 1.
(§2) As stated in the description of the present application, it is generally recognized that the glass transition temperature can be estimated as ⅔ of the melting temperature of the crystalline material (measured in Kelvin). From the DSC thermograms in FIG. 1 (left), it is seen that the crystalline base of compound (Ia) has an endothermic peak around 60° C. corresponding to the melting of the crystals. Based on the melting temperature of the crystalline base of compound (la), the calculated glass transition temperature of the amorphous form of this compound is thus ⅔*(60° C.+273)=222 K or −51° C. […] This means that the actual measured Tg of this amorphous form is around 5° C. and not −51° C. as calculated using the Beaman Rule.
(§3) Similar experiments were performed with the hydrogen fumarate of compound (Ia). Here the calculated Tg was based on the observed endothermic peak around 203° C. corresponding to the melting of the crystal (FIG. 1—right). Consequently, the calculated Tg is ⅔ *(203° C.+273)=317 K or 44° C. The thermogram of the amorphous form is shown in FIG. 2 (right) and depicts a change in heat capacity around 66° C. corresponding to a glass transition. This means that the actual measured Tg of the amorphous hydrogen fumarate of compound (Ia) is around 66° C. and not 44° C. as calculated.
Different scanning programs are used depending on the purpose of the analysis as given in example 9. In all DSC-experiments, 2-5 mg sample is packed into Tzero aluminum hermetic pans with a perforated lid, and the measurement is performed under 50 mL/min dry nitrogen gas purge.
Melting point and glass transition determined on the base of compound (Ia): Sample of 2-3 mg was packed into Tzero aluminum hermetic pans with a perforated lid and heated 1° C./min to 80° C. (giving the melting point), kept isothermal for 2 min., equilibrated at −50° C., and heated 10° C./min to 110° C. (giving the glass transition of the formed amorphous solid). […]

[2] = Recrystallization of amorphous material upon heating above Tg (DSC); settings: DSC thermogram of the amorphous material, FIG. 2
Method: Melting point and glass transition determined on the base of compound (Ia): Sample of 2-3 mg was packed into Tzero aluminum hermetic pans with a perforated lid and heated 1° C./min to 80° C. (giving the melting point), kept isothermal for 2 min., equilibrated at −50° C., and heated 10° C./min to 110° C. (giving the glass transition of the formed amorphous solid).
Melting point and glass transition of the hydrogen fumarate of compound (Ia): Sample heated 1° C./min to 210° C. (giving the melting point), kept isothermal for 2 min., equilibrated at −50° C., and heated 10° C./min to 230° C. (giving the glass transition of the formed amorphous solid).

[3] = Calculated glass transition temperature, 2/3 of the crystalline melting temperature in Kelvin (Beaman's rule); settings: crystalline melting points around 60° C. (base) and 203° C. (hydrogen fumarate)
Method: as §1
The glass transition temperature can be estimated as ⅔ of the melting temperature of the crystalline material (measured in Kelvin). This relationship is known as the “Beaman's rule” and applies to a wide range of both organic, inorganic, simple and polymeric materials. (Beaman, R. G. Journal of Polymer Science, 1952, 9(5): 470-472).
as §2, §3

[4] = Physical stability of amorphous solids by XRPD on storage at ambient conditions; settings: ambient conditions (15-35 degrees Celsius, 15-75 percent RH), 96 hours, 1, 4, 9 weeks, 5, 8, 12 months
Method: The term “ambient conditions” as used herein refers to conditions with a temperature range of 15-35 degrees Celsius and a relative humidity range of 15-75 percent.
X-Ray powder diffractograms were measured on a PANalytical X′Pert PRO X-Ray Diffractometer using CuKα1 radiation (λ=1.5406 Å). The samples were measured in reflection mode in the 2θ-range 3-40° using an X'celerator detector. (See FIGS. 3, 4 and 5).
The amorphous base and the fumarate salt of compound (Ia) were analyzed using XRPD to determine the physical stability of these solid forms. The presence of a substantially amorphous solid form was confirmed by a diffuse halo XRPD pattern similar to FIG. 3, which is characteristic for a solid amorphous form.
The short-term physical stability of the amorphous solids was analyzed immediately after preparation; the samples were analyzed by XRPD for 96 hours consecutively by alternating measurements every 2 hours. The long-term stability was then assessed by storing the amorphous solids under ambient conditions and analyzing them by XRPD after 1, 4 and 9 weeks as well as 5, 8 and 12 months.

actual (measured) glass transition temperature Tg [1]	actual (measured) glass transition temperature Tg ([1]; listed as amorphous base)	calculated glass transition temperature Tg [3]	calculated glass transition temperature Tg ([3]; listed as amorphous base)	actual (measured) glass transition temperature Tg ([1]; listed as amorphous hydrogen fumarate salt)	calculated glass transition temperature Tg ([3]; listed as amorphous hydrogen fumarate salt of compound (Ia))	SMILES	recrystallization upon heating above the glass transition [2]	physical stability of the amorphous solid (XRPD pattern) ([4]; listed as free base)	physical stability of the amorphous solid (XRPD pattern) [4]
around 5 °C	about 4 °C	−51 °C	about −51 °C	–	–	[2H]c1c([2H])c([2H])c([C@@H]2C[C@@H](N3CCN(C([2H])([2H])[2H])C(C)(C)C3)c3cc(Cl)ccc32)c([2H])c1[2H] [amorphous base of compound (Ia)]	do not recrystallize easily above the glass transitions	weak indication of crystallization of the free base after 5 months	–
around 66 °C	–	44 °C	–	66 °C	~44 °C	[2H]c1c([2H])c([2H])c([C@@H]2C[C@@H](N3CCN(C([2H])([2H])[2H])C(C)(C)C3)c3cc(Cl)ccc32)c([2H])c1[2H] [amorphous hydrogen fumarate of compound (Ia)]	do not recrystallize easily above the glass transitions	–	substantially amorphous solids at all timepoints
